From patent US5438130A, “Fucosylated guanosine disulfates as excitatory amino acid antagonists” (priority 1993, dated 1995)
Where two headings read alike, the source gives them in different places.

What was measured:
[1] = biological target: kainate receptor; conditions: printed for comparison; source not stated; read-out: IC50 (comparison, non-NMDA antagonists); cited from earlier work
[2] = test system: L-type calcium currents in N1E-115 murine neuroblastoma cells; test: L-type calcium currents in N1E-115 neuroblastoma cells, whole cell voltage clamp; format: cell-based
Experimental: (§1) L-type calcium currents were obtained from cultured N1E-115 murine neuroblastoma cells using standard whole cell voltage clamp techniques [Hamill, O. P. et al. Pflugers Archives 391:85 (1981)]. For recording inward currents, external calcium was substituted with barium. Cells were maintained in a external recording solution containing TEA.Cl, 130 mM; BaCl2, 5 mM; glucose, 10 mM; HEPES, 10 mM; tetrodotoxin, 1μM; pH 7.4). The pipette solution contained CsCl, 115 mM; EGTA, 10 mM; HEPES, 10 mM; Mg.ATP, 4 mM.
The results from one experiment can be seen in FIG. 6. A depolarizing test pulse to +10 mV elicited an inward current of ~240 pA, which was reduced by 20% by pressure-ejection (6 psi) of 22μM HF7. The effects of HF7 blockade were partially reversible (60% recovery) subsequent to washout of HF7. The voltage protocol is shown in the inset. Cells were held at Vh =-50 mV. L-type currents were evoked following a depolarizing voltage step to +10 mV.
(§2) Two sets of experiments were conducted to determine the concentration dependence of both L- and T-type calcium currents to HF7. Each experiment was conducted in a manner similar to that in which the FIG. 6 experiment was performed. Inward L-type currents were elicited by depolarizing test pulses to +10 mV from a resting potential of -50 mV. Inward T-type currents were elicited by depolarizing test pulses to -25 mV from a resting potential of -90 mV. Six doses of HF7 were utilized for each set of experiments. Each dose was tried on three different cells. Responses to HF7 were calculated as percent inhibition of control current. Negative values represent current levels that were greater than control.

[3] = test system: ionic currents elicited by glutamate in fish retinal neurons; test: Voltage clamp of glutamate-elicited currents in fish retinal neurons; format: cell-based; conditions: glutamate 50μM
[4] = test system: T-type calcium currents in N1E-115 murine neuroblastoma cells; test: T-type calcium currents in N1E-115 neuroblastoma cells, whole cell voltage clamp; format: cell-based; conditions: -90 mV to -25 mV; especially between 0 and 90μM; FIG. 7
Experimental: as §1, §2

[5] = biological target: kainate receptor; test: Displacement of [3H]-kainate, rat forebrain crude synaptic membranes; conditions: 50 mM Tris-acetate; 1 hour at 4° C.; FIG. 3; read-out: IC50, displacement of [3H]-kainate binding
Experimental: The ability of HF7 to block the kainate receptor was tested using a [^3 H]-kainate binding assay. More specifically, a standard receptor binding assay [London, E. D. et al. Molecular Pharmacol. 15:492 (1979)] was performed to determine the extent to which HF7 could displace the binding of radioactive kainate ([^3 H]-kainate, 1.0 mCi/ml, NEN). The membrane source was frozen rat forebrain crude synaptic membranes treated with detergent (0.01% TRITON-X100). Radioligand binding was determined using 50 mM Tris-acetate buffer. Samples were incubated for 1 hour at 4° C. and then filtered over either Whatman GF/B or Schleicher & Schuell glass filters. Non-specific binding was determined using 10^-4 M glutamate. [^3 H]-kainate binding was linear from 50-400 μg protein/tube.

[6] = test system: kainate receptors; test: Voltage clamp of kainate-elicited currents in fish retinal horizontal cells; format: cell-based
Excerpt: In this experiment, kainate currents were obtained from primary cultures of fish retinal horizontal cells using standard whole cell voltage clamp techniques [Hamill, O. P. et al. Pflugers Archives 391:85 (1981)]. For recordings cells were maintained in a physiological saline containing (in mM) NaCl, 145; KCl, 2.5; CaCl2, 2.5; MgSO4, 1.0; glucose, 10; HEPES, 10, pH 7.5). Cells were held near resting potential (Vh =-60 mV). Kainate current was elicited by superfusion of a solution of physiological saline solution containing 25μM kainate.
(§3) Two sets of experiments were conducted to determine the concentration dependence of both kainate and quisqualate currents to HF7. Each experiment was conducted in a manner similar to that in which the FIG. 4 experiment was conducted. Inward currents were elicited by bath perfusion of either 25μM kainate or by 10μM quisqualate. Six doses of HF7 were utilized for each set of experiments. Each dose was tried on three different cells. Responses to HF7 were calculated as a percent of control kainate current. […] Each point in FIG. 5 is the mean of measurement from three different cells.

[7] = test system: quisqualate currents in fish horizontal cells; test: Voltage clamp of quisqualate-elicited currents in fish retinal horizontal cells; format: cell-based; conditions: quisqualate 10μM
Experimental: as §3

[8] = test system: glutamate-induced current; test: Whole cell recording of glutamate-induced current under voltage clamp (HPLC fraction assay); format: cell-based; conditions: HF7 peak, voltage clamp mode
Experimental: The components were eluted from the column stepwise with 0%, 2% and 4% acetonitrile in 0.1% TFA for the duration of 45 min., 15 min. and 40 min., respectively, at a flow rate of 2 ml/min. The elution was monitored by absorbance at 214 nm (FIG. 2) and 254 nm. According to the elution profile, fractions were collected manually and, after being dried down and dissolved in an appropriate buffer, were assayed in whole cell recording of glutamate-induced current under the voltage clamp mode (see "Functional Characterization" below for details). […] The other batch of HF7 was also purified with a slightly different program of acetonitrile stepwise elution (1% for 20 min., 2% for 20 min. and 4% for 40 min.), resulting in a shorter operation time without a significant change in the elution profile.

[9] = test system: delayed neuronal degeneration following transient forebrain ischemia; conditions: cited from earlier work
[10] = in vivo; cited from earlier work
[11] = in vivo; cited from earlier work; remark: listed apart in the source
[12] = test system: stroke; conditions: cited from earlier work

N#Cc1cc2[nH]c(=O)c(=O)[nH]c2cc1[N+](=O)[O-] [CNQX]
IC50 [1]: ~2000 nM

O=c1[nH]c2cc([N+](=O)[O-])c([N+](=O)[O-])cc2[nH]c1=O [DNQX]
IC50 [1]: ~2000 nM

CC(=O)OC1C(C)OC(O[C@@H]2[C@H](OS(=O)(=O)O)[C@@H](COS(=O)(=O)O)O[C@H]2n2cnc3c(=O)[nH]c(N)nc32)C(O)C1O (stereo partly shown) [HF7]
reduction of L-type inward current ([2]; 22μM HF7, Vh = -50 mV, test pulse to +10 mV, FIG. 6): 20%
recovery of L-type current after washout ([2]; subsequent to washout of 22μM HF7, partially reversible): 60%
concentration dependence of L-type current inhibition ([2]; throughout the concentration range used, -50 mV to +10 mV, FIG. 7): inhibited in a concentration dependent manner
inhibition of ionic currents elicited by glutamate [3]: reversibly inhibited
effect on T-type current [4]: much more variable
IC50 [5]: ~20.7 µM
effect on kainate-elicited inward current ([6]; approximately 180μM HF7, pressure-ejection, Vh = -60 mV, kainate 25μM): virtually eliminated
inhibition of ionic currents elicited by kainate ([6]; kainate 25μM): reversibly inhibited
IC50 ([6]; kainate 25μM, mean of three cells per dose, FIG. 5, read-out: IC50, kainate current): ~60 µM
reversibility of HF7 blockade of kainate current ([6]; subsequent to washout): fully reversible
inhibition of the kainate response ([6]; ~200μM HF7, FIG. 4, kainate 25μM): near-complete inhibition
inhibition of ionic currents elicited by quisqualate [7]: reversibly inhibited
IC50 ([7]; mean of three cells per dose, FIG. 5, read-out: IC50, quisqualate current): ~60 µM
activity on glutamate-induced current [8]: found to be active

NS(=O)(=O)c1cccc2c1c([N+](=O)[O-])cc1nc(O)c(O)nc12 [NBQX, 2,3-dihydroxy-6-nitro-7-sulfamoyl-benzo(F)quinoxaline]
protection on delayed administration ([9]; administered several hours after the ischemic insult): protection was observed
prevention of delayed neuronal degeneration following transient forebrain ischemia ([9]; gerbils and rats, relatively large systemic doses): dramatically effective
crossing of the blood-brain barrier [10]: only in minute amounts

COCCOC(=O)C1=C(C)NC(C)=C(C(=O)OC(C)C)C1c1cccc([N+](=O)[O-])c1 (stereo not shown) [nimodipine]
toxicity relative to NMDA antagonists [11]: less toxic than the NMDA antagonists
improvement in the outcome of stroke ([12]; clinical trials): Modest improvement
cardiovascular side effects ([12]; in vivo): significant cardiovascular side effects
